Legend:
[1] = cited from earlier work
[2] = set-up: species or system human; settings: in vivo
Protocol: A phase 1, open-label, repeat-dose, two-way, single-sequence study was conducted to evaluate the effect of Compound 1, or a pharmaceutically acceptable salt, hydrate, or solvate thereof, (“Study Drug”) on the pharmacokinetics and pharmacodynamics of a monophasic oral contraceptive (OC) in healthy premenopausal female subjects.
The primary objective of the study was to evaluate the pharmacokinetics (PK) of a monophasic OC (30 μg ethinylestradiol [EE] and 150 μg levonorgestrel [LVG]) alone and when co-administered with repeated doses of Study Drug in healthy premenopausal female subjects.
All subjects received monophasic OC once daily (qd) for 21 days (Days 1 to 21; reference treatment) followed by a 7-day OC dose-free period (Days 22 to 28). […]
Blood samples for plasma PK evaluation of EE, LVG, and Study Drug were collected. The following PK parameters were determined for EE, LVG, and/or Study Drug and, if warranted, metabolites thereof. • Cmax,ss maximum plasma concentration at steady-state • Cmin,ss plasma concentration at 24-hours postdose at steady-state • Tmax,ss time to Cmax at steady-state • AUCtau,ss area under the plasma concentration-time curve (AUC) during the dosing interval (tau) at steady-state • CLSS/F Apparent plasma clearance of drug after extravascular administration at steady-state

ovarian activity = assay: Phase 1 study: PD markers of ovarian activity (FSH, LH, estradiol, progesterone, SHBG, TVUS/Hoogland score); type: in vivo, human; settings: Study Drug 2 mg qd with OC
Source text: (§1) Secondary objectives of the study were: • To assess the concentrations of follicle stimulating hormone (FSH), luteinizing hormone (LH), estradiol, and progesterone during and after dosing with the monophasic OC alone and when co-administered with Study Drug in healthy premenopausal female subjects. • To evaluate transvaginal ultrasound (TVUS) and Hoogland scores on Days 1 and 11±1 in Period 1 and Period 2 in healthy premenopausal female subjects. • To evaluate sex hormone binding globulin (SHBG) concentrations on Days 1 and 21 in Period 1 and Period 2 in healthy premenopausal female subjects. • To evaluate the steady-state PK of Study Drug when co-administered with the monophasic OC in healthy premenopausal female subjects. • To assess complete blood count (CBC) including differential, absolute lymphocyte count lowering from baseline, and platelet count upon administration of monophasic OC alone and when co-administered with Study Drug in healthy premenopausal female subjects. • To evaluate the safety and tolerability of Study Drug when co-administered with the monophasic OC in healthy premenopausal female subjects.
On Day 1, baseline CBC, FSH, LH, estradiol, progesterone, TVUS, and SHBG were obtained, and then subjects received OC dosing. The TVUS were performed on Day −1 or Day 1. The OC PK was done on Days 21 to 22. […]

[3] = Phase 1 study: steady-state PK of Study Drug co-administered with OC; type: in vivo, human; settings: Day 49, Period 2, Study Drug 2 mg qd + OC; compared with Study Drug given alone in previous studies
Source text: as §1
All subjects were co-administered Study Drug 2 mg qd with OC for 21 days (Days 29 to 49; test treatment), followed by a 7-day dose-free period (Days 50 to 56). On Days 49 to 50, subjects underwent assessments for PK of Study Drug and OC. […]

lymphocyte counts = assay: Phase 1 study: lymphocyte counts (CBC); type: in vivo, human
Source text: as §1
Subjects were administered 2 mg Study Drug, specifically, the L-arginine salt of Compound 1, i.e., Compound 2, qd on Days 23 to 28. […]

[4] = Phase 1 study: safety and tolerability (AEs, 12-lead ECG, Holter, laboratory, vital signs); type: in vivo, human
Protocol: Subjects were administered 2 mg Study Drug, specifically, the L-arginine salt of Compound 1, i.e., Compound 2, qd on Days 23 to 28. Subjects were fitted with a Holter monitor and 24-hour continuous electrocardiogram (ECG) recording was performed starting before the Study Drug dose on Day 23 of Period 1 until Day 24 of Period 1.
All subjects were co-administered Study Drug 2 mg qd with OC for 21 days (Days 29 to 49; test treatment), followed by a 7-day dose-free period (Days 50 to 56). On Days 49 to 50, subjects underwent assessments for PK of Study Drug and OC. Further PD assessments and safety evaluations were performed as described in the schedules of assessments and procedures. Subjects were fitted with a Holter monitor and 24-hour continuous ECG recording was performed starting before the Study Drug dose on Day 49 of Period 2 until Day 50 of Period 2.
Subject safety and tolerability were monitored during the study using standard measures, including adverse event (AE) monitoring, orthostatic vital signs, 12-lead ECGs, continuous ECG recordings (Holter), clinical laboratory evaluations, physical examinations, and concomitant medication usage.
• Evaluations of AEs, orthostatic vital signs, 12-lead ECGs, continuous ECG recording (Holter), clinical laboratory evaluations, physical examinations, concomitant medications

[5] = after the first dose (Day 23), 2 mg
[6] = repeat dosing at steady-state (Day 49), 2 mg qd

## O=C(O)C[C@H]1CCc2c1[nH]c1ccc(OCc3ccc(C4CCCC4)c(C(F)(F)F)c3)cc21 [Compound 1, (R)-2-(7-(4-cyclopentyl-3-(trifluoromethyl)benzyloxy)-1,2,3,4-tetrahydrocyclopenta[b]indol-3-yl)acetic acid]
[1]; Phase 2, ulcerative colitis patients, 2 mg QD for 12 weeks
  endoscopic and symptomatic improvements versus placebo: clinically meaningful and statistically significant
[1]; approximately 281 adult subjects, various doses, Phase 1 single doses up to 5 mg, repeated up to 4 mg QD
  safety and tolerability in adult subjects: safe and well-tolerated
[1]; open-label extension study
  duration of sustained beneficial effects: up to 46 weeks

## C#C[C@]1(O)CC[C@H]2[C@@H]3CCC4=CC(=O)CC[C@@H]4[C@H]3CC[C@@]21CC [Levonorgestrel (LVG), levonorgestrel]
[2]
  change in peak (Cmax,ss) and total (AUCtau,ss) exposure measures when OC coadministered with ETR vs OC alone: minor-to-moderate increases

## N=C(N)NCCC[C@H](N)C(=O)O.O=C(O)C[C@H]1CCc2c1[nH]c1ccc(OCc3ccc(C4CCCC4)c(C(F)(F)F)c3)cc21 [Compound 2, 1:1 salt of (R)-2-(7-(4-cyclopentyl-3-(trifluoromethyl)benzyloxy)-1,2,3,4-tetrahydrocyclopenta[b]indol-3-yl)acetic acid with L-arginine]
Ovarian activity
  impact of Study Drug on PD performance of the OC (FSH, LH, estradiol, progesterone, SHBG, TVUS/Hoogland score): no apparent clinically relevant impact
[3]
  Study Drug steady-state plasma exposure measures (Cmax,ss, Cmin,ss, AUCtau,ss): generally consistent with previous study findings
Lymphocyte counts; Day 56, 7 days after discontinuation of study treatment
  mean lymphocyte counts relative to mean baseline (Day 23) after discontinuation: 94%
Lymphocyte counts; Period 2, Study Drug 2 mg qd + OC, Day 49
  mean lymphocyte count reduction from mean baseline (Day 23): −56.7%
[4]; Days 23 or 49
  clinically significant abnormalities of 12-lead ECG parameters including PR interval and QT interval: No subject had an ECG with clinically significant abnormalities
[4]; [5]
  HR lowering effects, continuous Holter ECG recording: typically mild
  HR lowering effects, safety 12-lead ECG: typically mild
[4]; conclusion, coadministration with OC
  safety or tolerability events of concern: No safety or tolerability events of concern
[4]; [6]
  HR lowering effects, continuous Holter ECG recording: less impacted
  HR lowering effects, safety 12-lead ECG: less impacted

## C#C[C@]1(O)CC[C@H]2[C@@H]3CCc4cc(O)ccc4[C@H]3CC[C@@]21C [Ethinylestradiol (EE), ethinylestradiol]
[2]
  change in peak (Cmax,ss) and total (AUCtau,ss) exposure measures when OC coadministered with ETR vs OC alone: minor-to-moderate increases

— patent US20250152556A1, “ETRASIMOD FOR USE IN TREATING S1P1 RECEPTOR-ASSOCIATED DISORDERS IN COMBINATION WITH HORMONE TREATMENT” (Arena Pharmaceuticals, Inc., priority 2022, published 2025)
